Here are results for 13 molecules from patent publication US4570005A, “Process for the preparation of 2-arylpropyl ether or thioether derivatives” (priority 1980, dated 1986).

One data set can be described thus: Test 8: Fish Toxicity. In kind it is in vivo. Conditions: carp, water; concentration at which 1/2 of the test fishes were killed within 48 hours; read-out: Fish Toxicity, TLm48. As for the experimental part:
A water tank having a width of 60 cm, a length of 30 cm and a height of 40 cm was filled with water, and 10 yearling carps having a body length of about 5 cm were set free in the tank and adapted to the environment in the tank. A test compound was applied so that the concentration in water was 10, 1 or 0.1 ppm. After 48 hours, the numbers of killed and living carps were counted and the influences on the fishes were examined.

Data set [1] in a line: Test 9: Toxicity Test (acute oral toxicity, mice). Particulars: mouse, in vivo, po. The procedure: A predetermined amount of a solution or suspension of a test compound in corn oil was orally administered to male mice having a body weight of 19 to 23 g (0.2 ml per 10 g of the body weight). After 7 days, the number of killed mice was counted and the influences on the mice were examined.

Data set [2] concerns tobacco cutworm. Put plainly: Test 1: Effect on Tobacco Cutworm (leaf immersion), mortality after 24 hours. Conditions: second-instar larvae, 25° C. In kind it is in vivo. As for the experimental part:
(§1) To a mixture of 20 parts of the compound of the present invention and 20 parts of Sorpol SM-200 (registered tradename for the product supplied by Toho Chemical Industrial Co., Ltd.) was added 60 parts of xylol, and the mixture was suffciently blended. The obtained emulsifiable concentrate was diluted at a predetermined concentration with distilled water, and the obtained dilution was used.
An emulsifiable concentrate of a test compound prepared according to the method described in Formulation Example 1 was diluted to a concentration of 100 or 20 ppm. Sweet-potato leaves were immersed in the dilution for 10 seconds, air-dried and placed in a plastic cup having a diameter of 10 cm. Then second-instar larvae of tobacco cutworm were set free in the cup. The cup was allowed to stand still in a thermostat chamber maintained at 25° C. After 24 hours, the numbers of killed and living larvae were counted and the mortality was calculated. The obtained result was expressed by an average value obtained from the mortality calculated in three test cups.

The test system of data set [3] is resistant green rice leafhopper (collected at Nakagawara). Put plainly: Test 3: Effect on Resistant Green Rice Leafhopper (collected at Nakagawara). In kind it is in vivo, Nephotettix cincticeps Uhler (Green rice leafhopper). Particulars: Nephotettix cincticeps, 24 h, read-out: Mortality (%), Green Rice Leafhopper Collected at Nakagawara. The procedure, abridged: (§2)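 Ten adult females per pot, either resistant (Nakagawara) or sensitive (Chigasaki), were caged on air-dried rice seedlings (2–3 leaves) sprayed at 3 ml/pot with 100 or 20 ppm of an emulsifiable concentrate dilution. Dead and living insects were counted after 24 hours; mortality is the mean of three pots.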

In data set [4] the test system is sensitive green rice leafhopper (collected at Chigasaki). Put plainly: whole plant or invertebrate. In kind it is in vivo. Conditions: Nephotettix cincticeps, sensitive female adults, 24 hours, read-out: Mortality (%), Green Rice Leafhopper Collected at Chigasaki. The procedure, abridged: as §2
In a further data set the test system is diamond back moth. Nature of the data set: Test 4: Effect on Diamond Back Moth. In kind it is in vivo. Conditions: Plutella, third-instar larvae, 24 hours, read-out: Mortality (%). As for the experimental part: as §1
Cabbage leaves were spread in a plastic cup, and 10 third-instar larvae of diamond back moth were set free in the cup.
A chemical dilution having a concentration of 100 or 20 ppm, prepared in the same manner as described in Test 1, was applied from an applicator at a rate of 3 ml per cup.
After scattering of the chemical dilution, the cup was covered, and after 24 hours, the numbers of killed and living larvae were counted and the mortality was calculated. The test was made on three cups and the average value was calculated.

The test system of data set [5] is tobacco cutworm. Put plainly: Test 2: Tobacco Cutworm Larva Dipping Test, mortality after 24 hours. In kind it is in vivo. Particulars: 24 hours. As for the experimental part: as §1
A dilution having a chemical concentration of 100 or 20 ppm was prepared in the same manner as described in Test 1.
Second-instar and fifth-instar larvae of tobacco cutworm were dipped in the dilution for 5 seconds, and the excessive dilution was removed by a filter paper. Then, the larvae were set free in a plastic cup and an artificial diet was supplied thereto. The cup was allowed to stand still in a thermostat chamber maintained at 25° C. After 24 hours, the numbers of the killed and living larvae were counted and the mortality was calculated. The test was made on three cups and the result was expressed by an average value.

Another data set relates to German cockroach. Nature of the data set: Test 7: Effect on German Cockroach. In kind it is in vivo. Particulars: Blattella germanica, male adults, agonized and killed after 24 hours, read-out: Mortality (%). The procedure:
as §1
The bottom face of a high Petri dish having a diameter of 9 cm and a height of 9 cm was treated with 50 or 10 mg/m^2 of a test compound and the dish was air-dried. In order to prevent the adults from escaping from the dish, the inner wall of the dish was treated with butter. Then, 10 male adults of German cockroach were set free in each dish, and the dish was placed in a thermostat chamber maintained at 25° C. After 24 hours, the number of agonized and killed adults was counted. The test was made on two dishes and the average value was calculated.

Where [6] appears, read: fifth-instar larvae, read-out: Motality (%), Fifth-Instar Larvae.
Setting [7] is: second-instar larvae, read-out: Motality (%), Second-Instar Larvae.

Take `CC1(C)C(C=C(Cl)Cl)C1C(=O)OCc1cccc(Oc2ccccc2)c1` (stereo not shown) [(i), Permethrin, reference compound]: the LC50 at 48 h in the data set “Test 8: Fish Toxicity” is under 0.005 µg/mL.
What is called LD50 is the dose expected to kill half of the subjects tested. For the molecule `CC(C)C(C(=O)OC(C#N)c1cccc(Oc2ccccc2)c1)c1ccc(Cl)cc1` (stereo not shown) [Comparative Compound (a), reference compound], the LC50 at 48 h in the data set “Test 8: Fish Toxicity” was under 0.005 µg/mL. In data set [1], the LD50 at 168 h is 260 mg/kg.
On to `CCC(C)(COCc1cccc(Oc2ccc(F)cc2)c1)c1ccc(F)cc1` (stereo not shown) [Compound 2, 3-(4-fluorophenoxy)benzyl 2-(4-fluorophenyl)-2-methylbutyl ether], for which the mortality at 20 ppm with tobacco cutworm [2] is 90%; in data set [3], 95%; in data set [4] it was 80%; in the data set on diamond back moth it was 100%. For the same molecule, the mortality at 100 ppm (in the data set with tobacco cutworm [2]; in data set [3]; in data set [4]; in the data set on diamond back moth) was 100% each time. The LC50 at 48 h in the data set “Test 8: Fish Toxicity” was over 1 µg/mL. In data set [1], this molecule displayed an LD50 at 168 h of over 500 mg/kg.
As for `CC(C)(COCc1cccc(Oc2ccc(Br)cc2)c1)c1ccc(Cl)cc1` [Compound 4, 3-(4-Bromophenoxy)benzyl 2-(4-chlorophenyl)-2-methylpropyl ether], the mortality at 20 ppm in the data set on tobacco cutworm [2] worked out at 95%; in the data set on tobacco cutworm [5] (setting [6]) it was 70%; with tobacco cutworm [5] (setting [7]), 90%; in data set [3], 70%; in data set [4], 50%; with diamond back moth, 100%. Further, the mortality at 100 ppm in the data set on tobacco cutworm [2] turned out to be 100%; with tobacco cutworm [5] (setting [6]), 80%; in the data set on tobacco cutworm [5] (setting [7]), 90%; in data set [3], 100%; in data set [4], 100%; with diamond back moth it was 100%. In “Test 8: Fish Toxicity”, the LC50 at 48 h was over 10 µg/mL. Further, the LD50 at 168 h in data set [1] was over 500 mg/kg.
In the case of `COc1ccc(Oc2cccc(COCC(C)(C)c3ccccc3)c2)cc1` [Compound 13, 3-(4-methoxyphenoxy)benzyl 2-phenyl-2-methylpropyl ether], the mortality at 20 ppm is 70% in data set [3] and 50% in data set [4]. Besides, the mortality at 100 ppm in data set [3] and in data set [4] was 100% each time. Also, in “Test 8: Fish Toxicity”, the LC50 at 48 h was over 10 µg/mL. The LD50 at 168 h in data set [1] is over 500 mg/kg.
On to `Cc1ccc(Oc2cccc(COCC(C)(C)c3ccc(Cl)cc3)c2)cc1` [Compound 19, 3-(4-methylphenoxy)benzyl 2-(4-chlorophenyl)-2-methylpropyl ether], for which, in data set [3], the mortality at 20 ppm was determined as 100% and the mortality at 100 ppm worked out at 100%. In addition, in data set [4], the mortality at 20 ppm turned out to be 90% and the mortality at 100 ppm worked out at 100%. Besides, the LC50 at 48 h in the data set “Test 8: Fish Toxicity” is over 10 µg/mL. In data set [1], this molecule came in with an LD50 at 168 h of over 500 mg/kg.
`CC(C)(COCc1cccc(Oc2ccc(Br)cc2)c1)c1ccc(Cl)c(Cl)c1` [Compound 21, 3-(4-Bromophenoxy)benzyl 2-(3,4-dichlorophenyl)-2-methylpropyl ether]: the mortality at 20 ppm was found to be 85% in data set [3] and 60% in data set [4]. For the same molecule, the mortality at 100 ppm in data set [3] and in data set [4] was 100% in each case. Besides, the LC50 at 48 h in the data set “Test 8: Fish Toxicity” was over 10 µg/mL. This molecule gave an LD50 at 168 h in data set [1] of over 500 mg/kg.
`CC(C)(COCc1cccc(Oc2ccc(F)cc2)c1)c1cccc(C(F)(F)F)c1` [Compound 23, 3-(4-Fluorophenoxy)benzyl 2-(3-trifluoromethylphenyl)-2-methylpropyl ether]: in the data set on tobacco cutworm [2], the mortality at 20 ppm was 80% and the mortality at 100 ppm was determined as 100%. In addition, in the data set “Test 8: Fish Toxicity”, the LC50 at 48 h was over 1 µg/mL. This molecule displayed an LD50 at 168 h in data set [1] of over 500 mg/kg.
Take `CC(C)(COCc1cccc(Oc2ccc(Br)cc2)c1)c1ccc(OC(F)F)cc1` [Compound 30, 3-(4-Bromophenoxy)benzyl 2-(4-difluoromethoxyphenyl)-2-methylpropyl ether]: the mortality at 20 ppm was 80% with tobacco cutworm [2], 100% in data set [3], 100% in data set [4] and 70% in the data set with diamond back moth. For the same molecule, the mortality at 100 ppm (in the data set on tobacco cutworm [2]; in data set [3]; in data set [4]; with diamond back moth) was 100% throughout. In addition, the LC50 at 48 h in the data set “Test 8: Fish Toxicity” was over 1 µg/mL. The same molecule registered an LD50 at 168 h in data set [1] of over 500 mg/kg.
For `CC(C)(CSCc1cccc(Oc2ccc(Br)cc2)c1)c1ccc(Cl)cc1` [Compound 37], the mortality at 20 ppm was found to be 100% in the data set with tobacco cutworm [2], 70% in data set [3], 50% in data set [4] and 100% in the data set on diamond back moth. The mortality at 100 ppm (in the data set with tobacco cutworm [2]; in data set [3]; in data set [4]; with diamond back moth) was 100% each time. Besides, the LC50 at 48 h in the data set “Test 8: Fish Toxicity” is over 10 µg/mL. The molecule further yielded an LD50 at 168 h in data set [1] of over 500 mg/kg.
With `CC(C)(COCc1cccc(Oc2ccccc2)c1)c1ccc(F)cc1` [Compound 51, 3-Phenoxybenzyl 2-(4-fluorophenyl)-2-methylpropyl ether], the mortality at 20 ppm (in the data set on tobacco cutworm [2]; in data set [3]; in data set [4]) was 100% in each case. For the same molecule, the mortality at 100 ppm (in the data set with tobacco cutworm [2]; in data set [3]; in data set [4]) was 100% throughout. Further, the LC50 at 48 h in “Test 8: Fish Toxicity” was over 1 µg/mL. This molecule displayed an LD50 at 168 h in data set [1] of over 500 mg/kg.
Turning to `C=COc1ccc(C(C)(C)COCc2cccc(Oc3ccccc3)c2)cc1` [Compound 67, 3-Phenoxybenzyl 2-(4-vinyloxyphenyl)-2-methylpropyl ether], the mortality at 20 ppm is 90% in the data set with tobacco cutworm [2], 100% with tobacco cutworm [5] (setting [6]), 100% in the data set on tobacco cutworm [5] (setting [7]) and 90% in the data set on diamond back moth. The mortality at 100 ppm in the data set on tobacco cutworm [2], in the data set with tobacco cutworm [5] (setting [6]), in the data set with tobacco cutworm [5] (setting [7]) and in the data set on diamond back moth was 100% throughout. Moreover, the mortality at 10 mg/m2 in the data set with German cockroach (10 mg/m^2) is 100%. Moreover, the mortality at 50 mg/m2 in the data set on German cockroach (50 mg/m^2) stood at 100%. In data set [1], this molecule came in with a 50% lethal dose (LD50) at 168 h of over 500 mg/kg.
Regarding `CC(C)(COCc1cccc(Oc2ccccc2)c1)c1ccc(Br)cc1` [Compound 107, 3-Phenoxybenzyl 2-(4-bromophenyl)-2-methylpropyl ether], the mortality at 20 ppm in data set [3] and in data set [4] was 100% each time. Also, the mortality at 100 ppm in data set [3] and in data set [4] was 100% each time. Besides, the LC50 at 48 h in the data set “Test 8: Fish Toxicity” was over 1 µg/mL. Moreover, the median lethal dose (LD50) at 168 h in data set [1] was over 500 mg/kg.
